{"source": "patent US8796228B2", "about": "“Method for neutralizing fungi using sophorolipids and antifungal sophorolipids for use therein” (Synthezyme, LLC, priority 2004, dated 2014)", "assay_in_all_cases": "Antifungal assay, growth inhibition by OD in 96 well plates", "assay_type_in_all_cases": "cell-based", "conditions_in_all_cases": "5 mg/ml sophorolipid solution, 48 hours at 30° C., OD at 400 nm vs control wells", "key": {"Candida antartica": {"system": "Candida antartica", "description": "(§1) Sophorolipid solution was prepared by adding 15 mg of compound in 1 ml sucrose solution, pH 8.5.\n(§2) All assay were carried out in 96 well plates using Yeast extract-Maltose medium. The logarithmic growing cultures were incubated with 5 mg/ml of sophorolipids for 48 hours at 30° C. Following incubation, the wells were measured for Optical Density (OD) at 400 nm using microtitre plate readers. Percent (%) inhibition of growth was calculated corresponding to the OD in control wells containing no sophorolipid."}, "Candida albicans": {"system": "Candida albicans", "description": "as §1, §2"}, "Candida tropicalis": {"system": "Candida tropicalis", "description": "as §1, §2"}}}
{"smiles": "CCCCCCOC(=O)CCCCCCC/C=C\\CCCCCCC(C)O[C@@H]1O[C@H](CO)[C@@H](O)[C@H](O)[C@H]1O[C@@H]1O[C@H](CO)[C@@H](O)[C@H](O)[C@H]1O", "note": "(relative stereo) [Hexyl SL, Hexyl 17-L-[(2′-O-β-D-glucopyranosyl-β-D-glucopyranosyl)-oxy]-cis-9-octadecenoate]", "values": [{"measurement": "Inhibition %", "setting": "Candida antartica", "result": 100, "unit": "%"}, {"measurement": "Inhibition %", "setting": "Candida albicans", "result": 38, "unit": "%"}, {"measurement": "Inhibition %", "setting": "Candida tropicalis", "result": 100, "unit": "%"}]}
{"smiles": "CCOC(=O)CCCCCCC/C=C\\CCCCCCC(C)O[C@@H]1O[C@H](CO)[C@@H](O)[C@H](O)[C@H]1O[C@@H]1O[C@H](CO)[C@@H](O)[C@H](O)[C@H]1O", "note": "(relative stereo) [SL - Ethyl Ester, Ethyl 17-L-([2′-O-β-D-glucopyranosyl-β-D-glucopyranosyl]-oxy)-cis-9-octadecenoate]", "values": [{"measurement": "Inhibition %", "setting": "Candida antartica", "result": 28, "unit": "%"}, {"measurement": "Inhibition %", "setting": "Candida albicans", "result": 20, "unit": "%"}, {"measurement": "Inhibition %", "setting": "Candida tropicalis", "result": 35, "unit": "%"}]}
{"smiles": "COC(=O)CCCCCCC/C=C\\CCCCCC[C@H](C)O[C@@H]1O[C@H](CO)[C@@H](O)[C@H](O)[C@H]1O[C@@H]1O[C@H](CO)[C@@H](O)[C@H](O)[C@H]1O", "note": "(relative stereo) [SL - Methyl Ester, Methyl 17-L-([2′-O-β-D-glucopyranosyl-β-D-glucopyranosyl]-oxy)-cis-9-octadecenoate]", "values": [{"measurement": "Inhibition %", "setting": "Candida antartica", "result": 71, "unit": "%"}, {"measurement": "Inhibition %", "setting": "Candida albicans", "result": 100, "unit": "%"}, {"measurement": "Inhibition %", "setting": "Candida tropicalis", "result": 100, "unit": "%"}]}
{"smiles": "CCOC(=O)CCCCCCC/C=C\\CCCCCCC(C)O[C@@H]1O[C@H](COC(C)=O)[C@@H](O)[C@H](O)[C@H]1O[C@@H]1O[C@H](COC(C)=O)[C@@H](O)[C@H](O)[C@H]1O", "note": "(relative stereo) [SL Ethyl Ester Diacetate, Ethyl 17-L-([2′-O-β-D-glucopyranosyl-β-D-glucopyranosyl]-oxy)-cis-9-octadecenoate 6′,6″-diacetate]", "values": [{"measurement": "Inhibition %", "setting": "Candida antartica", "result": 100, "unit": "%"}, {"measurement": "Inhibition %", "setting": "Candida albicans", "result": 100, "unit": "%"}, {"measurement": "Inhibition %", "setting": "Candida tropicalis", "result": 100, "unit": "%"}]}
{"smiles": "CCOC(=O)CCCCCCC/C=C\\CCCCCC[C@H](C)O[C@@H]1O[C@H](CO)[C@@H](O)[C@H](O)[C@H]1O[C@@H]1O[C@H](COC(C)=O)[C@@H](O)[C@H](O)[C@H]1O", "note": "(relative stereo) [SL Ethyl Ester Monoacetate, Ethyl 17-L-[(2′-O-β-D-glucopyranosyl-β-D-glucopyranosyl)-oxy]-cis-9-octadecenoate-6″-acetate]", "values": [{"measurement": "Inhibition %", "setting": "Candida antartica", "result": 42, "unit": "%"}, {"measurement": "Inhibition %", "setting": "Candida albicans", "result": 100, "unit": "%"}, {"measurement": "Inhibition %", "setting": "Candida tropicalis", "result": 35, "unit": "%"}]}
